Measured values from patent US20170189484A1, “CEACAM5 PEPTIDES FOR CROHN'S DISEASE” (ICAHN SCHOOL OF MEDICINE AT MOUNT SINAI, priority 2014, published 2017).

Key:
Assay type in all cases: cell-based, human
[1] = tested on: peripheral blood CD8+ T cells; assay: In vitro suppression assay, peripheral blood CD8+ T cells (CFSE CD4+ T cell proliferation); settings: for suppressor activity acquired by stimulated CD8+ T cells (suppression of CD4+ T cell proliferation): 10 μg/mL, 3 days, co-culture 1:1 with CFSE-labeled CD3/CD28-stimulated CD4+ T cells; for percent suppression of CD4+ T cell proliferation (suppressive activity): single peptide 10 μg/mL, normalized against unstimulated CD8+ T cells
From the text: To identify the N-domain peptides that trigger the activation of CD8+ T cells with the suppressor phenotype, peripheral blood CD8^+ T cells and peripheral blood CD4^+ T cells were selected using CD8^+ and CD4^+ T-cell selection kits (Stemcell Technologies, Vancouver, Canada), respectively.
Anti-CD3/CD28 beads were used as positive controls. Cells were then washed, counted, and added at a ratio of 1:1 (2×10^6) to peripheral CD4^+ T cells labeled with carboxyfluorescein succinimidyl ester (CFSE) (Invitrogen, CA), and either unstimulated or stimulated with anti-CD3/CD28 beads.
(§1) Proliferation of CD4^+ T-cells measured by CFSE dilution was evaluated by flow cytometry. CD4+ T cells were labeled with PE anti-CD4 antibody. Percent suppression was calculated based on equation 1:
(§2) % Supp=100*[1−(%Exp/%Control)] (1)
(§3) where: • %Supp=percent suppression • %Exp=the percentage of proliferating CD4+ T cells in the experimental population • % Control=the percentage of proliferating CD4+ T cells in the control population
These peptides were selected due to their activity in the phosphorylation assay. […] Peptides 13 and 15 were also shown to activate suppression, although to a more modest extent (˜10% suppressive activity).
Finally, peptides a-d (see FIG. 7A) were also evaluated using the same procedure, incubating the cells with each single peptide (10 μg/mL).

[2] = tested on: LcK phosphorylation in peripheral blood CD8+ T cells; assay: In cell western blot LcK phosphorylation assay; settings: 10 μg/mL, 5, 10, 15 minutes
Procedure: The library of peptides 1-20 was first evaluated by western blot for their ability to activate CD8+ T cells, as indicated by the ability to stimulate LcK phosphorylation (“pLcK”). Peripheral blood isolated CD8′ T cells (2×10^6) were seeded in a 96-well flat-bottom plate and starved in RPMI serum free medium overnight at 37° C. The next day and prior to performing the experiments, the plate was placed on ice for 15 minutes. Cells were stimulated with OKT8 (5 μg/mL) (a known CD8+ T cell activator), purified CEACAM5 peptide (10 μg/mL), the entire library of peptides (10 μg/mL), Pool 1 (10 μg/mL), Pool 2 (10 μg/mL), Pool 3 (10 μg/mL), or each single N-domain peptide (10 μg/mL). Unstimulated cells were also evaluated for each condition. Prior to these experiments a titration curve was performed for the entire library of peptides. A range of concentration between 1 and 100 μg/mL was tested.
Stimulation was stopped using a 4% formaldehyde buffer for 20 minutes followed by centrifugation for 10 minutes at 1,500 rpm. Permeabilization was performed by washing the cells with 1×PBS containing 0.1% Triton X-100 for 5 minutes per wash. After permeabilization, cells were incubated for 1 hour with a blocking buffer (Odyssey Blocking buffer-LICOR) followed by the primary antibodies (goat anti-actin and rabbit anti-pLcK) overnight at 4° C. The next day, cells were washed 5 times with 1×PBS containing 0.1% Tween 20, incubated for 1 hour at room temperature with the secondary antibodies (IRDye 800CW donkey anti goat IgG, IRDye 680 CW donkey anti rabbit IgG), and then washed five times. Wells were dried and the plate was scanned using an Odyssey LiCOR system. The software ImageJ was used for quantification of pLcK. Each value was calculated using actin expression as a house keeping gene and taking into consideration any background noise. […]

[3] = tested on: normal lamina propria CD8+ T cells; assay: Cytokine IL10 production in lamina propria CD8+ T cells; settings: cultured 3 days; supernatant assessed
Procedure: Cytokine production in lamina propria CD8+ T cells was evaluated. Normal lamina propria CD8+ and CD4+(control) T cells were cultured for 3 days in presence of OKT8 (control) or either CEACAM5 or peptide 12. The supernatant was then assessed for cytokine production.

[4] = tested on: Crohn's disease lamina propria CD8+ T cells; assay: In vitro suppression assay, Crohn's disease lamina propria CD8+ T cells (suppression of CD4+ T cell proliferation); settings: for average suppression percentage (suppressor phenotype): Crohn's disease lamina propria CD8+ cells, relative to CD4+ proliferation with normal unstimulated CD8+ T cells
Procedure: (§4) Lamina propria lymphocytes were isolated from patients undergoing surgery for Crohn's disease (CD) or colon cancer (representing a normal (NL) T cell population). Lamina propria CD8+ T cells were isolated after overnight incubation and incubated with CEACAM5 peptide for 3 days. CD8+ T cells were then washed and co-cultured with CFSE-CD3/CD28-stimulated CD4+ T cells for 3 days. Suppression of CD4+ T cell proliferation was measured on the 7th day.
as §1, §2, §3
as §4, with “peptide or peptide 12” for “peptide”

[5] = tested on: CD8-associated LcK kinase in CD8+ T cells; assay: Flow cytometry LcK phosphorylation assay; settings: 2, 8, 10, 15 minutes at 37° C., peptide 12 at 20 μg/ml
Procedure: To confirm the ability of peptide 12 to activate CD8+ T cells, a second LcK phosphorylation assay was conducted using flow cytometry. CD8+ T cells were treated for different time points (2, 8, 10, 15 minutes) at 37° C. with H2O2 at 10 mM, CEACAM5 supernatant from PIPLC-293T cells expressing CEACAM5, and peptide 12 (20 μg/ml). Stimulation was stopped by fixing with 4% formaldehyde for 10 minutes at room temperature. Subsequently, cells were permeabilized with ice-cold methanol for 20 minutes, washed with PBS containing 0.2% FBS, and then stained with anti-phospho-Lck Ab (BD Biosciences, San Jose, Calif.). The cells were then re-suspended in PBS plus 0.2% FBS, data were acquired using the FACScan system (LSRFortessa, BD Biosciences), and analyzed with FlowJo analysis software (Ashland, Oreg.).

[6] = tested on: normal lamina propria CD8+ T cells; assay: In vitro suppression assay, normal (colon cancer) lamina propria CD8+ T cells; settings: normal condition (colon cancer biopsies); CD8+ T cells incubated 3 days, vs absence of CEACAM5
Procedure: as §4
as §4, with “peptide or peptide 12” for “peptide”

With “GYVIGTQQATPGPAYSGREI (Fragment of the CEACAM5 N-terminal domain) [peptide c]” the “suppressor activity acquired by stimulated CD8+ T cells (suppression of CD4+ T cell proliferation)” value (from here on “suppressor activity acquired”) [1] was “acquired suppressor activity”.

In the case of H-ASLLIQNIIQNDTGF-OH [peptide 15], the “percent suppression of CD4+ T cell proliferation (suppressive activity)” value [1] is reported as roughly 10%.

In the case of H-GTQQATPGPAYSGRE-OH [peptide 11], the “CD8+ T cell activation (LcK phosphorylation, p-LcK)” value [2] is reported as “induced phosphorylation of LcK at after 10 minutes”.

With H-IGYVIGTQQATPGPA-OH [peptide 10] the “CD8+ T cell activation (LcK phosphorylation, p-LcK)” value [2] was “induced phosphorylation of LcK at after 10 minutes”.

H-TPGPAYSGREIIYPN-OH [peptide 12] was tested, and the “CD8+ T cell activation (LcK phosphorylation, p-LcK)” value [2] was “greatest effect in the activation of CD8+ T cells”, the “suppressor activity acquired” value [1] was “acquired suppressor activity at the same extant as those activated with full-length CEACAM5” and the IL10 production [3] was “increased IL10”. The “average suppression percentage (suppressor phenotype)” value [4] was 64% and the “phosphorylation of CD8-associated LcK kinase” value [5] was “induce phosphorylation of CD8-associated LcK kinase”.

For H-YSGREIIYPNASLLI-OH [peptide 13], the “percent suppression of CD4+ T cell proliferation (suppressive activity)” value [1] was roughly 10%.

With “TQQATPGPAYSGREIITPNA (Fragment of the CEACAM5 N-terminal domain) [peptide d]” the “suppressor activity acquired” value [1] was “acquiring suppressor activity to the same extent as cells activated with peptide 12”.

B1: CEACAM5: carcinoembryonic antigen family member 5 (GenBank Accession No. NP_001278413), full-length purified glycoprotein used as comparator (protein)
chain: KLTIESTPFNVAEGKEVLLLVHNLPQHLFGYSWYKGERVDGNRQIIGYVIGTQQATPGPAYSGREIIYPNASLLIQNIIQNDTGFYTLHVIKSDLVNEEATGQFRVYPELPKPSISSNNSKPVEDKDAVAFTCEPETQDATYLWWVNNQSLPVSPRLQLSNGNRTLTLFNVTRNDTASYKCETQNPVSARRSDSVILNVLYGPDAPTISPLNTSYRSGENLNLSCHAASNPPAQYSWFVNGTFQQSTQELFIPNITVNNSGSYTCQAHNSDTGLNRTTVTTITVYEPPKPFITSNNSNPVEDEDAVALTCEPEIQNTTYLWWVNNQSLPVSPRLQLSNDNRTLTLLSVTRNDVGPYECGIQNELSVDHSDPVILNVLYGPDDPTISPSYTYYRPGVNLSLSCHAASNPPAQYSWLIDGNIQQHTQELFISNITEKNSGLYTCQANNSASGHSRTTVKTITVSAELPKPSISSNNSKPVEDKDAVAFTCEPEAQNTTYLWWVNGQSLPVSPRLQLSNGNRTLTLFNVTRNDARAYVCGIQNSVSANRSDPVTLDVLYGPDTPIISPPDSSYLSGANLNLSCHSASNPSPQYSWRINGIPQQHTQVLFIAKITPNNNGTYACFVSNLATGRNNSIVKSITVSASGTSPGLSA
With B1 the “suppressive function of lamina propria CD8+ T cells” value [6] was “increased suppressive function”, the IL10 production [3] was “increased IL10” and the “average suppression percentage (suppressor phenotype)” value [4] was 63%. The “suppressive function of lamina propria CD8+ T cells” value ([4]; Crohn's disease, CD8+ T cells incubated 3 days) was “stimulates the suppressive function” and the “phosphorylation of CD8-associated LcK kinase” value [5] was “induce phosphorylation of CD8-associated LcK kinase”.
